# Test results: publication PMC6271323, “Preparation of Rotenone Derivatives and in Vitro Analysis of Their Antimalarial, Antileishmanial and Selective Cytotoxic Activities” (Molecules, 2014)
# Read-outs that look alike come from different tables or passages of the source.
# Experiments:
# [1] = tested on: intracellular amastigotes of Leishmania panamensis; assay: Leishmanicidal activity on intracellular amastigotes, flow cytometry (GFP); type: cell-based; details: for Index of Selectivity huMDM: IS = LC50 in huMDM/EC50 for L. panamensis; for EC50: Leishmania panamensis, read-out: Biological activity CE50 Leishmanicidal
# Experimental: The leishmanicidal activity was tested on intracellular amastigotes of Leishmania panamensis by flow cytometry following the methodology previously described. Previously, huMDM were infected with promastigotes of L. panamensis transfected with the green fluorescent protein gene (MHOM/CO/87/UA140pIR-GFP) in a proportion of 35:1 (parasites:cells). Plates were incubated at 34 °C, 5% CO2, and after 3 h, cells were washed twice with phosphate buffer (PBS) and incubated again. After 24 h, the infected cells were exposed for 72 h to each concentration of the compounds. Cells were removed using trypsin/EDTA solution and washed twice with PBS by centrifuging 10 min at 1,100 rpm, 4 °C. Then, cells were analyzed in a flow cytometer (Cytomics FC 500MPL, Brea, CA, USA) by reading at 488-nm excitation, 525-nm emissions over an argon laser and counting 10,000 events. The percentage of infected cells was determined by dot plot analysis, while the parasitic load was calculated by the mean fluorescence intensity using histogram analysis. In parallel, cells incubated in medium alone were used as the controls of infection (negative control), and cells exposed to amphotericin B were used as controls of leishmanicidal activity (positive control). Each concentration was assessed in triplicate in at least two independent experiments.
# Antileishmanial activity was determined according to the reduction of infected cells and their parasite load obtained for each experimental condition according to the fluorescence median intensity (FMI) emitted by the cytometer and using Equation 3, where the % of parasitemia in unexposed cells corresponds to 100% parasitemia. […] Results are expressed as the median effective concentration (EC50) calculated by probit analysis using the % of inhibition of infection: % parasitemia = (FMI Exposed cells)/(FMI unexposed cells) × 100(3)
# (§1) The index of selectivity was calculated with the equation: IS = LC50/EC50.
# in vitro [2] = assay: in vitro
# Excerpt: U937 cells (CRL-1593^TM) were isolated from human histiocytic lymphoma; Vero cells (CCL-81^TM) were derived from the kidney of the African green monkey, Cercopithecus aethiops; HepG2 (HB-8065^TM) cells were derived from human liver tissue, and CAD-R1 cells, a subclone, were derived from mouse neuronal cells. All cell lines were from American Type Culture Collection (Manassas, VA, USA), except CAD-R1 cells that were kindly donated by D. Chikaraishi and J. Wang (Department of Neurobiology, Duke University Medical Center, Durham, NC, USA). All cell lines were cultured in standard conditions at 37 °C, 5% CO2. U-937 cells were cultivated in RPMI 1640 medium supplemented with 10% fetal bovine serum (FBS) and antibiotics (penicillin 100 U/mL and streptomycin 0.1 mg/mL). Vero, HepG2 and CAD-R1 were cultivated in DMEM medium supplemented with 5% FBS and antibiotics.
# (§2) Cytotoxic activity of rotenone and it derivatives on U-937, Vero, HepG2, […] and huMDM cells was evaluated in vitro using the MTT (3-(4,5-dimethylthiazol-2-yl)-2,5-diphenyltetrazolium bromide assay) as described previously. Cells were adjusted to 1 × 10^5 U-937 cells/mL, 2.5 × 10^5 Vero, HepG2 or CAD-R1 cells/mL and 5 × 10^5 huMDM cells/mL in RPMI 1640 supplemented with 10% SBF and the corresponding concentration of each compound. Six serial-based four-dilution concentrations from 200 to 0.19 μg/mL were tested. The amount of formazan produced by the viable cells was registered as optical densities (OD) obtained in an ELISA reader (Bio-Rad) at 570 nm. […] Additionally, hemolytic activity on huRBCs was assessed by the osmotic lysis method. In brief, O positive (O+) huRBCs were adjusted at 3% hematocrit saline solution and incubated in the presence of each compound (six serial four-fold dilutions from 200 to 0.19 µg/mL) at 37 °C. After 2 h, hemoglobin concentration in the supernatant was measured according to the OD obtained in an ELISA reader plate (Bio-Rad) at 570 nm. Cells exposed to saline solution with Triton X-100 were used as positive (lyses) controls, while unexposed cells were used as negative (viability) controls. Each compound and each concentration were assessed in triplicate in at least two separate experiments.
# (§3) The percentage of viability (%V) was calculated using Equation 1, where the optical density (OD) of unexposed cells (negative control) corresponds to 100% of viability. In turn, mortality percentage corresponds to 100%–% viability: % Viability = (OD Exposed cells)/(OD Control cells) × 100(1)
# [3] = tested on: Plasmodium falciparum (chloroquine sensitive 3D7 strain); assay: microbe, parasite or virus in culture; type: cell-based; details: for EC50: read-out: Biological activity CE50 Antiplasmodial; for Index of Selectivity huRBC: IS = LC50 in huRBC/EC50 in P. falciparum
# Experimental: The effect of compounds on the growth of the parasites was assessed by quantification of the parasite DNA stained with ethidium bromide (EtBr). Briefly, unsynchronized cultures of P. falciparum were adjusted to a 1.5%–2% parasitemia and 5% hematocrit in RPMI medium supplemented with 10% human serum. Then, 500 µL of parasites and 500 µL of each concentration of compound were placed in each well of 24-well plates. Plates were incubated for 72 h at 37 °C in a N2 (90%), CO2 (5%) and O2 (5%) atmosphere. […] After 72 h of exposure, DNA from parasites was extracted and purified using a lysis solution containing proteinase K. Each compound and each concentration were assessed in triplicate in at least two separate experiments.
# Results are expressed as the median effective concentration (EC50) calculated by probit analysis using the % of inhibition: % parasite growth = (FAU Exposed parasites)/(FAU unexposed parasites) × 100(2)
# as §1
# in vitro [4] = details: human
# Experimental: Primary cultures of human monocyte-derived macrophages (huMDMs) and human red blood cells (huRBCs) obtained from healthy donors after signing the informed consent were also used. The huMDM were obtained from peripheral mononuclear cells isolated by Ficoll-Hypaque 1077 gradient centrifugation. huMDMs were suspended at 3 × 10^5 cells/mL in RPMI 1640 medium supplemented with 10% autologous serum. One mL of suspension was dispensed into each well of 24-well chamber slides and incubated at 37 °C, 5% of CO2 for 72 h, according to a previously described methodology. On the other hand, huRBCs were obtained from sodium citrate anticoagulated whole blood. After centrifugation at 1,500 rpm for 10 min, the RBCs were recovered and suspended in RPMI 1640 medium at 50% hematocrit and stored at 4 °C until use.
# as §2, §3
# [5] = L. panamensis intracellular amastigotes in huMDM, 72 h exposure, ± SD, n = 6 replicates
# [6] = African green monkey (Cercopithecus aethiops)
# [7] = Plasmodium falciparum, 3D7, 72 h, total forms of P. falciparum 3D7, unsynchronized culture, 72 h, ± SD, n = 6 replicates
# [8] = total forms of P. falciparum 3D7, unsynchronized culture, 72 h, ± SD, n = 6 replicates
compound,measurement,setting,value
"C[C@@H]1[C@H](O)[C@@H](C)/C=C/C=C/C=C/C=C/C=C/C=C/C=C/[C@H](O[C@@H]2O[C@H](C)[C@@H](O)[C@H](N)[C@@H]2O)C[C@@H]2O[C@](O)(C[C@@H](O)C[C@@H](O)[C@H](O)CC[C@@H](O)C[C@@H](O)CC(=O)O[C@H]1C)C[C@H](O)[C@H]2C(=O)O [Amphotericin B, reference compound]",Index of Selectivity huMDM,[1],143.0
same,EC50,[1]; [5],0.8 ± 0.2 µM
same,CC50,in vitro [2]; [6],15.6 ± 0.4 µM
same,CC50,in vitro [2]; mouse,54.5 ± 0.3 µM
"CCN(CC)CCCC(C)Nc1ccnc2cc(Cl)ccc12 (stereo not drawn) [Chloroquine, reference compound]",EC50,[3]; [7],0.06 ± 0.03 µM
"C=C(C)[C@H]1Cc2c(ccc3c2O[C@@H]2COc4cc(OC)c(OC)cc4[C@@H]2C3=O)O1 [Compound 1, rotenone]",Index of Selectivity huMDM,[1],3.1
same,EC50,[1]; 72 h,127 ± 17.3 µM
same,activity against intracellular amastigotes (in words),"[1]; antileishmanial activity, L. panamensis",inactive
same,CC50 at 2 h,in vitro [4],> 508 µM
same,CC50,in vitro [2]; [6],> 508 µM
same,CC50,in vitro [2]; mouse,10.2 µM
same,Index of Selectivity huRBC,[3]; listed as 1 (Rotenone),>26.1
same,EC50,"[3]; Plasmodium falciparum, 3D7, 72 h",19 ± 8.6 µM
"COc1cc2c(cc1OC)[C@@H]1C(=O)c3ccc4c(c3O[C@@H]1CO2)C[C@H](C1(C)CO1)O4 (stereo partly drawn) [Compound 2, 6aS,12aS-8,9-Dimethoxy-2-(2-methyloxiran-2-yl)-1,2,12,12a-tetrahydrochromeno[3,4-b]furo[2,3-h]-chromen-6(6aH)-one]",Index of Selectivity huMDM,[1],<3.6
same,EC50,[1]; [5],> 126 µM
same,CC50,in vitro [4],> 505 µM
same,CC50,in vitro [2]; [6],81.3 ± 16.9 µM
same,CC50,in vitro [2]; mouse,29 ± 3 µM
same,Index of Selectivity huRBC,[3],>12.1
same,EC50,[3]; [7],< 50 µM
same,EC50,[3]; [8],41.7 ± 12.6 µM
"C=C(C)[C@H]1Cc2c(ccc3c2O[C@@H]2COc4cc(OC)c(OC)cc4[C@@H]2C3O)O1 (stereo partly drawn) [Compound 3, 2R,6aR,12aS-8,9-Dimethoxy-2-(prop-1-en-2-yl)-1,2,6,6a,12,12a-hexahydrochromeno[3,4-b]furo[2,3-h]chromen-6-ol]",Index of Selectivity huMDM,[1],<3.9
same,EC50,[1]; [5],> 130 µM
same,CC50,in vitro [4],> 523 µM
same,CC50,in vitro [2]; [6],284 ± 23.6 µM
same,CC50,in vitro [2]; mouse,17 ± 3.4 µM
same,Index of Selectivity huRBC,[3],>9.6
same,EC50,[3]; [7],< 50 µM
same,EC50,[3]; [8],53.9 ± 2.4 µM
"COc1cc2c(cc1OC)C1Cc3ccc4c(c3O[C@@H]1CO2)C[C@H](C(C)C)O4 (stereo partly drawn) [Compound 7, 2R,6aS,12aS-2-Isopropyl-8,9-dimethoxy-1,2,6,6a,12,12a-hexahydrochromeno-[3,4-b]furo[2,3-h]-chromene]",Index of Selectivity huMDM,[1],<4.0
same,EC50,[1]; [5],> 119 µM
same,CC50,in vitro [4],> 476 µM
same,CC50,in vitro [2]; [6],> 476 µM
same,CC50,in vitro [2]; mouse,1.67 ± 0.9 µM
same,Index of Selectivity huRBC,[3],8.7
same,EC50,[3]; [7],< 50 µM
same,EC50,[3]; [8],47.4 ± 0.2 µM
"COc1cccc2c1C(=O)c1c(O)c3c(c(O)c1C2=O)C[C@@](O)(C(=O)CO)C[C@@H]3O[C@H]1C[C@H](N)[C@H](O)[C@H](C)O1 [Doxorubicin, reference compound]",CC50,in vitro [2]; [6],9.36 ± 2.2 µM
same,CC50,in vitro [2]; mouse,2.6 ± 0.7 µM
